Assays:
[1] = tested on: Winterweizens Sorte Mironowskaya 808; assay: Field test of gametocidal activity (anther sterilisation), winter wheat Mironowskaya 808; type: in vivo, Weizen; settings: for Kornzahl der Ähre bei freier Bestäubung / Kornzahl der Ähre im Isolator / Prozentsatz des Ansetzens von Samen bei freier Bestäubung: Mironowskaya 808, period V of organogenesis, 1% aqueous emulsion, 10 kg/ha; for Prozentsatz des Ansetzens von Samen bei freier Bestäubung: control = 100; for pest or weed control at 1 %, 10000 g/ha: read-out: Prozentsatz der Sterilität %
Text: (§1) Die gametozide Aktivität der erfindungsgemäßen Sterilisationsmittel war in Feldversuchen in verschiedenen bodenklimatischen Zonen mit Teilstücken von 10 m^2 Größe in dreibis viermaliger Wiederholung festgestellt. Jedes Sterilisationsmittel wurde mindenstens 5 Jahre lang geprüft.
(§2) Die Entwicklung der Perioden der Organogenese wird zytologisch überwacht. Die Behandlung von Pflanzen mit dem Sterilisationsmittel erfolgt am Anfang der fünften Periode der Organogenese nach Kupermann.
(§3) Mit dem Ährenschieben verwirklicht man die Isolierung von Hauptähren und anderen Stockwerken in Pergametbeuteln. Bei Weizen und Tritikale werden Einzelisolatoren benutzt. Bei Roggen schließt man je 1 Ähre von […] verschiedenen nebeneinander befindlichen Pflanzen unter einen gemeinsamen Isolator ein. Bei Hirse wird jede Rispe getrennt isoliert. Der Sterilitätsprozentsatz (X) für Weizen, Roggen, Tritikale und Hirse wird nach der Formel [formula] ermittelt.
(§4) Die Kornzahl in nicht isolierten Ähren von Kontrollpflanzen wird bedingt für 100 % Ansetzen bei freier Bestäubung angenommen.
(§5) Um zuverlässige Angaben zu erhalten, verwendet man 20 bis 25 Isolatoren je Wiederholung für Weizen und Tritikale, 10 bis 15 Isolatoren jeder Wiederholung für Roggen und Hirse.
Pflanzen des Winterweizens Sorte Mironowskaya 808 werden in der V.Periode der Organogenese durch Zerstäubung der 2%igen wäßrigen Emulsion von 1,1,3-Tribrompropan mit Hilfe einer Rückenspritze behandelt.
Als Emulgierungsmittel setzt man 0,5 Masse% C12-C14--Kalziumalkylbenzolsulphonat zu. Als Adjuvans enthält die Emulsion 0,01 Masse% Dimethylsulfoxid. Der Verbrauch an Präparat beträgt 20 kg/ha bei 1000 Liter Wasserdurchsatz. Als Kontrolle dienen Pflanzen, behandelt mit einem Verdünner ohne Sterilisationsmittel. Die Ergebnisse sind in der Tabelle 1 angegeben.
Der ProzeB wird analog zu dem in Beispiel 1 beschriebenen durchgeführt. Als Sterilisationsmittel verwendet man eine 2%ige waßrige Emulsion von 1,1,3-Tribrom-4-chlorbutan, 1,1,2,3-Tetrabrompropan. Die Prüfergebnisse sind in der Tabelle 1 angegeben.
Der Prozeß wird analog zu dem in Beispiel 1 beschriebenen durchgeführt, nur daß man 1%ige wäßrige Emulsion von 1,2,3-Tribrompropan, 1,2-Dibrompropan, 1,1,3-Tribrom-3--chlorpropan, 1,2-Dibrom-3-chlorpropan, 1,3-Dibrompropan, 1,1,1,3-Tetrabromheptan, 1,1,3-Tribromheptan, 1,2-Dibromheptan verwendet. Die Präparatdosis beträgt 10 kg ha. Die Prüfergebnisse sind in der Tabelle 1 angegeben. Die gleichen Ergebnisse sind bei der Behandlung des Weizens Sorte Mironowskaya 808 in der VI. Periode der Organogenese erhalten.

[2] = tested on: diploidem Roggen Kharkovskaya 55; assay: Field test of gametocidal activity, diploid rye Kharkovskaya 55; type: in vivo
Text: as §1, §2, §3, §4, §5
Pflanzen von diploidem Roggen Kharkovskaya 55 werden in der V. Periode der Organogenese mit einer l%igen wäßrigen Emulsion von 1,1,3-Tribrompropan, 1,2,3-Tribrompropan, 1,2-Dibrompropan, 1,1,3-Tribrom-3-chlorpropan, 1,2--Dibrom-3-chlorpropan, 1,1,1,3-Tetrabromheptan, 1,1,3-Tribromheptan bzw. 1,2-Dibromheptan behandelt. Die Emulsion enthält 0,5 Masse% C12-C14-Kalziumalkylbenzolsulfonat und 0,01 Masse% Dimethylformamid als Adjuvans. Der Verbrauch an Präparat beträgt 6 kg/ha bei 600 1 Wasserdurchsatz. Die Prüfergebnisse sind in der Tabelle 13 angegeben. Die gleichen Ergebnisse sind bei der Behandlung von diploidem Roggen Kharkovskaya 55 in der VI. Periode der Organogenese erhalten.

diploidem Roggen Chulpan = assay: Field test of gametocidal activity, diploid rye Chulpan; type: in vivo; settings: for Kornzahl der Ähre bei freier Bestäubung / Kornzahl der Ähre im Isolator / Prozentsatz des Ansetzens von Samen bei freier Bestäubung: Chulpan, period V, 1% aqueous emulsion, 10 kg/ha; for Prozentsatz des Ansetzens von Samen bei freier Bestäubung: control = 100; for pest or weed control at 10000 g/ha: read-out: Prozentsatz der Sterilität
Text: as §1, §2, §3, §4, §5
Pflanzen von diploidem Roggen Chulpan werden in der V.Periode der Organogenese mit einer 1%igen wäßrigen Emulsion von 1,1,3-Tribrompropan, 1,1,3-Tribrom-4-chlorbutan, 1,1,2,3-Tetrabrompropan, 1,2,3-Tribrompropan, 1,2-Dibrompropan, 1,1,3-Tribrom-3-ohlorpropan, 1,2-Dibrom-3--chlorpropan, 1,3-Dibrompropan, 1,1,1,3-Tetrabromheptan, 1,1,3-Tribromheptan bzw. 1,2-Dibromheptan behandelt. Die Emulsion enthält 0,5 Masse% C12-C14-Kalziumalkylbenzolsul- fonat und 0,01 Masse% Dimethylsulfoxid. Der Verbrauch an Präparat beträgt 10 kg/ha. Die Prüfergebnisse sind in der Tabelle 11 angegeben. Die gleichen Ergebnisse sind bei der Behandlung von diploidem Roggen Chulpan in der VI. Periode der Organogenese erhalten.

[3] = tested on: tetraploidem Roggen Belta; assay: Field test of gametocidal activity, tetraploid rye Belta; type: in vivo; settings: period V, 1% aqueous emulsion, 6 kg/ha in 600 l water
Text: as §1, §2, §3, §4, §5
Pflanzen von tetraploidem Roggen Belta werden in der V.Periode der Organogenese (nach Kupermann) mit einer 1%igen wäßrigen Emulsion von 1,1,3-Tribrompropan, 1,1,3--Tribrom-4-chlorbutan, 1,1,2,3-Tetrabrompropan, 1,2,3-Tribrompropan, 1,1,3-Tribrom-3-chlorpropan bzw. 1,2-Dibrom--3-chlorpropan behandelt.
Die Emulsion enthält 0,5 Masse% C12-C14-Kalziumalk^yl-benzolsulfonat und 0,01 Masse% Dimethylsulfoxid. Der Verbrauch an Präparat beträgt 6 kg/ha bei 600 1 Wasserdurchsatz.Die Prüfergebnisse sind in der Tabelle 7 angegeben. Die gleichen Ergebnisse sind bei der Behandlung von tetraploidem Roggen Belta in der VI. Periode der Organogenese erhalten.

[4] = tested on: Sommerweizens Sorte Moskowskaya 35; assay: Field test of gametocidal activity, spring wheat Moskowskaya 35; type: in vivo, Weizen; settings: for Kornzahl der Ähre bei freier Bestäubung / Kornzahl der Ähre im Isolator / Prozentsatz des Ansetzens von Samen bei freier Bestäubung: Moskowskaya 35, period V, 1% aqueous emulsion, 6 kg/ha in 600 l water; for Prozentsatz des Ansetzens von Samen bei freier Bestäubung: control = 100; for pest or weed control at 6000 g/ha: read-out: Prozentsatz der Sterilität
Text: as §1, §2, §3, §4, §5
Pflanzen des Sommerweizens Sorte Moskowskaya 35 werden in der V. Periode der Organogenese (nach Kupermann) mit einer l%igen wäßrigen Emulsion von 1,1,3-Tribrompropan, […], 1,1,2,3-Tetrabrompropan, 1,2,3-Tribrompropan, 1,2-Dibrompropan, 1,1,3-Tribrom-3-chlorpropan, 1,2-Dibrom-3-chlorpropan, 1,3-Dibrompropan, 1,1,1,3-Tetrabromheptan bzw. 1,1,3-Tribromheptan behandelt. Die Emulsion enthält als Emulgierungsmittel 0,5 Masse% C12-C14-Kalzium- alkylbenzolsulfonat und als Adjuvans 0,01 Masse% Dimethylformamid. Der Verbrauch an Präparat beträgt 6 kg/ha bei 600 1 Wasserdurchsatz. Als Kontrolle dienen Pflanzen, behandelt mit dem Verdünner ohne Sterilisationsmittel.
Die Prüfergebnisse sind in der Tabelle 2 angegeben. Die gleichen Ergebnisse sind bei der Behandlung des Sommerweizens Sorte Moskowskaya 35 in der VI.Periode der Organogenese erhalten.

[5] = tested on: Sommerweizens Sorte Botanicheskaya 4; assay: Field test of gametocidal activity, spring wheat Botanicheskaya 4; type: in vivo, Weizen; settings: period V, 1% aqueous emulsion, 6 kg/ha in 600 l water
Text: as §1, §2, §3, §4, §5
Pflanzen des Sommerweizens Sorte Botanicheskaya 4 werden in der V. Periode der Organogenese (nach Kupermann) mit einer 1%igen wäßrigen Emulsion von 1,3-Dibrompropan, 1,1,1,3-Tetrabromheptan, 1,1,2-Tribromheptan bzw. 1,2--Dibromheptan behandelt. Die Emulsion enthält 0,5 Masse% C12-C14-Kalziumalkylbenzolsulfonat und 0,01 Masse% Dimethylsulfoxid als Adjuvans. Der Verbrauch an Präparat beträgt 6 kg/ha bei 600 1 Wasserdurchsatz. Als Kontrolle dienen Pflanzen, behandelt mit dem Verdünner ohne Sterilisationsmittel.
Die Prüfergebnisse sind in der Tabelle 4 angegeben. Die gleichen Ergebnisse sind bei der Behandlung des Sommerweizens Sorte Botanicheskaya 4 in der VI. Periode der Organogenese erhalten.

[6] = tested on: Sommerweizens Sorte Rodina; assay: Field test of gametocidal activity, spring wheat Rodina; type: in vivo, Weizen; settings: period V, 1% aqueous emulsion, 6 kg/ha in 600 l water
Text: as §1, §2, §3, §4, §5
Pflanzen des Sommerweizens Sorte Rodina werden in der V.Periode der Organogenese (nach Kupermann) mit einer l%igen wäßrigen Emulsion von 1,3-Dibrompropan, 1,1,1,3-Tetrabromheptan, 1,1,3-Tribromheptan bzw. 1,2-Dibromheptan behandelt. Die Emulsion enthalt 0,5 Masse% C12-C14 Kalziumalk^ylbenzol- sulfonat und 0,01 Masse% Dodezylsulfat. Der Verbrauch an Präparat beträgt 6 Kg/ha bei 600 1 Wasserdurchsatz. Als Kontrolle dienen Pflanzen, behandelt mit dem Verdünner ohne Sterilisationsmittel.
Die Prüfergebnisse sind in der Tabelle 3 angegeben. Die gleichen Ergebnisse sind bei der Behandlung des Sommerweizens Sorte Rodina in der VI. Periode der Organogenese erhalten.

[7] = tested on: Hirse Sorte Mironovskoye 94; assay: Field test of gametocidal activity, millet Mironovskoye 94; type: in vivo
Text: as §1, §2, §3, §4, §5
Pflanzen der Hirse Sorte Mironovskoye 94 werden in der V.Periode der Organogenese mit einer 1%igen wäßrigen Emulsion von 1,1,3-Tribrompropan, 1,2,3-Tribrompropan, 1,2-Dibrompropan, 1,2-Dibrom-3-chlorpropan, 1,3-Dibrompropan, 1,1,1,3-Tetrabromheptan, 1,1,3-Tribromheptan, 1,2-Dibromheptan behandelt. Die Emulsion enthält 0,5 Masse% C12-C14--Kalziumalkylbenzolaulfonat und 0,01 Masse% Dimethylsulfoxid als Adjuvans. Der Verbrauch an Präparat beträgt 6 kg/ha bei 600 1 Wasserdurchsatz. Die Prüfergebnisse sind in der Tabelle 15 angegeben. Die gleichen Ergebnisse sind bei der Behandlung der Hirse Sorte Mironovskoye 94 in der VI. Periode der Organogenese erhalten.

[8] = Toxicity in animal test (LD50); parameters: species or system Mäuse; settings: in vivo, mice stated only for 1,1,3-Tribrompropan, species not given for the others
Text: Alle erfindungsgemäßen Polybromalkane, die als Sterilisationsmittel zur Verwendung kommen, waren auf die Toxizität im Tierversuch geprüft. Die Prüfergebnisse haben ergeben, daß die angegebenen Verbindungen von schwacher oder mittlerer Toxizität sind.

[9] = Kharkovskaya 55, period V, 1% aqueous emulsion, 6 kg/ha in 600 l water
[10] = read-out: Prozentsatz der Sterilität
[11] = Mironovskoye 94, period V, 1% aqueous emulsion, 6 kg/ha in 600 l water

Structure (SMILES)	Kornzahl der Ähre bei freier Bestäubung [1]	Kornzahl der Ähre im Isolator [1]	Prozentsatz des Ansetzens von Samen bei freier Bestäubung [1]	pest or weed control at 1 %, 10000 g/ha [1] [%]	Kornzahl der Ähre bei freier Bestäubung (diploidem Roggen Chulpan)	Kornzahl der Ähre im Isolator (diploidem Roggen Chulpan)	Prozentsatz des Ansetzens von Samen bei freier Bestäubung (diploidem Roggen Chulpan)	pest or weed control at 10000 g/ha (diploidem Roggen Chulpan) [%]	Kornzahl der Ähre bei freier Bestäubung [4]	Kornzahl der Ähre im Isolator [4]	Prozentsatz des Ansetzens von Samen bei freier Bestäubung [4]	pest or weed control at 6000 g/ha [4] [%]	Kornzahl der Ähre bei freier Bestäubung [5]	Kornzahl der Ähre im Isolator [5]	Prozentsatz der Sterilität [5]	further results
ClC(Br)CC(Br)Br (stereo not drawn) [Beispiel 6, 1,1,3-Tribrom-3--chlorpropan]	37,0	1,2	99,2%	96.8	47,7	0,6	95,2%	98.8	37,8	1,2	98,9%	96.3				Kornzahl der Ähre bei freier Bestäubung [2, 9]: 41,7; Kornzahl der Ähre im Isolator [2, 9]: 0,1; Prozentsatz des Ansetzens von Samen bei freier Bestäubung ([2]; Kharkovskaya 55, period V, 1% aqueous emulsion, 6 kg/ha in 600 l water, control = 100): 92,5%; pest or weed control at 6000 g/ha [2, 10]: 99.8%; Kornzahl der Ähre bei freier Bestäubung [3]: 39,8; Kornzahl der Ähre im Isolator [3]: 0,1; Prozentsatz der Sterilität [3]: 99,9%; Prozentsatz des Ansetzens von Samen bei freier Bestäubung ([3]; control = 100): 90,0%
BrCCCBr [Beispiel 8, 1,3-Dibrompropan]	38,7	0,0	93,0%	100	41,7	0,1	83,2%	99.8	32,7	0,0	85,6%	100	24,7	0,0	100,0%	Kornzahl der Ähre bei freier Bestäubung [6]: 37,1; Kornzahl der Ähre im Isolator [6]: 0,0; Prozentsatz der Sterilität [6]: 100,0%; Prozentsatz des Ansetzens von freier Bestäubung ([6]; control = 100): 91,8%; Kornzahl der Rispe bei freier Bestäubung [7, 11]: 212,7; Kornzahl der Rispe im Isolator [7, 11]: 0,0; Prozentsatz des Ansetzens von Samen bei freier Bestäubung ([7]; Mironovskoye 94, period V, 1% aqueous emulsion, 6 kg/ha in 600 l water, control = 100): 86,9%; pest or weed control at 6000 g/ha [7, 10]: 100%; LD50 [8]: 473 ± 25 mg/kg
CCCCCC(Br)C(Br)Br (stereo not drawn) [Beispiel 28, 1,1,2-Tribromheptan]													29,2	0,0	100,0%	Prozentsatz des Ansetzens von Samen bei freier Bestäubung ([5]; control = 100): 94,5%

Source: patent EP0358766A1, “METHOD OF STERILIZING PLANT ANTHERS” (VSESOJUZNY NAUCHNO-ISSLEDOVATELSKY INST. SELSKOKHOZYAISTV. …, priority 1988, dated 1989)
